Measured values published in patent US20250147039A1, “Compounds for complexation of rare earth elements and/or s-, p-, d- block metals, their coordination compounds, peptide conjugates, method of their preparation and use thereof” (USTAV ORGANICKE CHEMIE A BIOCHEMIE AV CR V.V.I., priority 2021, published 2025).

How the values were obtained:
[1] = Formation of 1,5-cz-[Ln(Lig)] from Lig and Ln^III ions (metal dependent click-zip), MOPS/NaOH buffer pH 7.0, analytical HPLC (Charts 1, 2); conditions: MOPS/NaOH buffer pH 7.0
[2] = pH dependent formation of 1,5- and 1,4-cz-Lig isomers from Lig (pH dependent click-zip) (Chart 13); type: physicochemical
[3] = Formation of 1,5-cz-[M(Lig)] from Lig and M^II ions (metal dependent click-zip) (Charts 6, 7); type: physicochemical; conditions: MOPS/NaOH buffer pH 7.0; for conversion to 1,5-cz-[M(Lig)], Ca^II / conversion to 1,5-cz-[M(Lig)], Cd^II / conversion to 1,5-cz-[M(Lig)], Pb^II: TD728 in 50% i-PrOH
[4] = A: 1 hour at 80° C., 0.1M HClO4 (pH ~1)
[5] = A: 1 hour at 80° C., 1.0M HClO4 (pH ~0)
[6] = A: 1 hour at 80° C., pH 2.2, 50 mM aq. buffer
[7] = A: 1 hour at 80° C., pH 3.0, 50 mM aq. buffer
[8] = A: 1 hour at 80° C., pH 3.8, 50 mM aq. buffer
[9] = A: 1 hour at 80° C., pH 4.6, 50 mM aq. buffer
[10] = A: 1 hour at 80° C., pH 5.4, 50 mM aq. buffer
[11] = A: 1 hour at 80° C., pH 6.2, 50 mM aq. buffer
[12] = A: 1 hour at 80° C., pH 7.0, 50 mM aq. buffer
[13] = A: 1 hour at 80° C., pH 8.6, 50 mM aq. buffer
[14] = A: 1 hour at 80° C., pH 9.4, 50 mM aq. buffer
[15] = A: 1 hour at 80° C., pH 10.2, 50 mM aq. buffer
[16] = B: 1 day at 80° C., 0.1M HClO4 (pH ~1)
[17] = B: 1 day at 80° C., 1.0M HClO4 (pH ~0)
[18] = B: 1 day at 80° C., pH 2.2, 50 mM aq. buffer
[19] = B: 1 day at 80° C., pH 3.0, 50 mM aq. buffer
[20] = B: 1 day at 80° C., pH 3.8, 50 mM aq. buffer
[21] = B: 1 day at 80° C., pH 4.6, 50 mM aq. buffer
[22] = B: 1 day at 80° C., pH 5.4, 50 mM aq. buffer
[23] = B: 1 day at 80° C., pH 6.2, 50 mM aq. buffer
[24] = B: 1 day at 80° C., pH 7.0, 50 mM aq. buffer
[25] = B: 1 day at 80° C., pH 8.6, 50 mM aq. buffer
[26] = B: 1 day at 80° C., pH 9.4, 50 mM aq. buffer
[27] = B: 1 day at 80° C., pH 10.2, 50 mM aq. buffer

conversion to 1,5-cz-[Ln(Lig)], Tb^III ([1]; after 1 week at 80° C.): 91%
conversion to 1,5-cz-[Ln(Lig)], Tb^III ([1]; after 1 hour at 80° C.): 9%
conversion to 1,5-cz-[Ln(Lig)], Tm^III ([1]; after 1 week at 80° C.): 96%
conversion to 1,5-cz-[Ln(Lig)], Tm^III ([1]; after 1 hour at 80° C.): 48%
conversion to 1,5-cz-[Ln(Lig)], Yb^III ([1]; after 1 week at 80° C.): 96%
conversion to 1,5-cz-[Ln(Lig)], Yb^III ([1]; after 1 hour at 80° C.): 61%
conversion to 1,4-cz-Lig isomer [2, 4]: 3%
conversion to 1,5-cz-Lig isomer [2, 4]: 44%
conversion to 1,4-cz-Lig isomer [2, 5]: 2%
conversion to 1,5-cz-Lig isomer [2, 5]: 9%
conversion to 1,4-cz-Lig isomer [2, 6]: 2%
conversion to 1,5-cz-Lig isomer [2, 6]: 17%
conversion to 1,4-cz-Lig isomer [2, 7]: 1%
conversion to 1,5-cz-Lig isomer [2, 7]: 6%
conversion to 1,4-cz-Lig isomer [2, 8]: 1%
conversion to 1,5-cz-Lig isomer [2, 8]: 1%
conversion to 1,4-cz-Lig isomer [2, 9]: 1%
conversion to 1,5-cz-Lig isomer [2, 9]: 1%
conversion to 1,4-cz-Lig isomer [2, 10]: 1%
conversion to 1,5-cz-Lig isomer [2, 10]: 1%
conversion to 1,4-cz-Lig isomer [2, 11]: 1%
conversion to 1,5-cz-Lig isomer [2, 11]: 1%
conversion to 1,4-cz-Lig isomer [2, 12]: 2%
conversion to 1,5-cz-Lig isomer [2, 12]: 1%
conversion to 1,4-cz-Lig isomer [2, 13]: 3%
conversion to 1,5-cz-Lig isomer [2, 13]: 2%
conversion to 1,4-cz-Lig isomer [2, 14]: 3%
conversion to 1,5-cz-Lig isomer [2, 14]: 8%
conversion to 1,4-cz-Lig isomer [2, 15]: 2%
conversion to 1,5-cz-Lig isomer [2, 15]: 17%
conversion to 1,4-cz-Lig isomer [2, 16]: 5%
conversion to 1,5-cz-Lig isomer [2, 16]: 91%
conversion to 1,4-cz-Lig isomer [2, 17]: 8%
conversion to 1,5-cz-Lig isomer [2, 17]: 72%
conversion to 1,4-cz-Lig isomer [2, 18]: 6%
conversion to 1,5-cz-Lig isomer [2, 18]: 88%
conversion to 1,4-cz-Lig isomer [2, 19]: 6%
conversion to 1,5-cz-Lig isomer [2, 19]: 69%
conversion to 1,4-cz-Lig isomer [2, 20]: 6%
conversion to 1,5-cz-Lig isomer [2, 20]: 22%
conversion to 1,4-cz-Lig isomer [2, 21]: 5%
conversion to 1,5-cz-Lig isomer [2, 21]: 13%
conversion to 1,4-cz-Lig isomer [2, 22]: 6%
conversion to 1,5-cz-Lig isomer [2, 22]: 12%
conversion to 1,4-cz-Lig isomer [2, 23]: 12%
conversion to 1,5-cz-Lig isomer [2, 23]: 11%
conversion to 1,4-cz-Lig isomer [2, 24]: 23%
conversion to 1,5-cz-Lig isomer [2, 24]: 19%
conversion to 1,4-cz-Lig isomer [2, 25]: 32%
conversion to 1,5-cz-Lig isomer [2, 25]: 26%
conversion to 1,4-cz-Lig isomer [2, 26]: 17%
conversion to 1,5-cz-Lig isomer [2, 26]: 60%
conversion to 1,4-cz-Lig isomer [2, 27]: 5%
conversion to 1,5-cz-Lig isomer [2, 27]: 80%
conversion to 1,5-cz-[M(Lig)], Ba^II ([3]; 1 week at 80° C.): 0%
conversion to 1,5-cz-[M(Lig)], Ni^II ([3]; 1 week at 80° C.): 0%
conversion to 1,5-cz-[M(Lig)], Sr^II ([3]; 1 week at 80° C.): 0%
conversion to 1,5-cz-[M(Lig)], Zn^II ([3]; 1 week at 80° C.): 0%
conversion to 1,5-cz-[M(Lig)], Ca^II ([3]; 1 week at 80° C.): 87%
conversion to 1,5-cz-[M(Lig)], Cd^II ([3]; 1 week at 80° C.): 86%
conversion to 1,5-cz-[M(Lig)], Pb^II ([3]; 1 week at 80° C.): 54%
conversion to 1,5-cz-[M(Lig)], Ba^II ([3]; 1 hour at 80° C.): 0%
conversion to 1,5-cz-[M(Lig)], Ni^II ([3]; 1 hour at 80° C.): 0%
conversion to 1,5-cz-[M(Lig)], Sr^II ([3]; 1 hour at 80° C.): 0%
conversion to 1,5-cz-[M(Lig)], Zn^II ([3]; 1 hour at 80° C.): 0%
conversion to 1,5-cz-[M(Lig)], Ca^II ([3]; 1 hour at 80° C.): 16%
conversion to 1,5-cz-[M(Lig)], Pb^II ([3]; 1 hour at 80° C.): 2%
conversion to 1,5-cz-[M(Lig)], Cd^II ([3]; 1 hour at 80° C., TD714 sum of two diastereoisomers): 64%
Structure (SMILES): C#Cc1cccc(CN2CCN(CC(=O)O)CCN(Cc3cc(-c4ccccc4)cc(CN=[N+]=[N-])n3)CCN(CC(=O)O)CC2)n1 [TD647]
